Patent publication US11129819B2, “Fumarate analogs and uses thereof” (Rigel Pharmaceuticals, Inc., priority 2014, dated 2021)
Counter-ions that a name gives are not always drawn.

Test system: experimental autoimmune encephalomyelitis (EAE)
Experiment: Autoimmune encephalitis (EAE) in vivo assay in mice
Design: species or system C57BL/6 mice
Conditions: dosed at 60 mg/kg beginning on the day of immunization, 60 mg/kg

| SMILES | onset of disease paralysis |
| --- | --- |
| COC(=O)/C=C/n1nn[nH]c1=O [Compound 1, methyl (E)-3-(5-oxo-4,5-dihydro-1H-tetrazol-1-yl)acrylate] | significantly prevented the onset of disease paralysis |

Same assay, conditions: dosed at 60 mg/kg beginning on the day of immunization, listed as compound 1, 60 mg/kg

| SMILES | onset of disease paralysis |
| --- | --- |
| COC(=O)/C=C/n1nn[nH]c1=O [Compound 1, methyl (E)-3-(5-oxo-4,5-dihydro-1H-tetrazol-1-yl)acrylate] | significantly prevents the onset of disease paralysis |

Test system: NrF2 (Nuclear factor (erythroid-derived 2)-like 2)
Experiment: NrF2 activation in a whole cell nuclear translocation assay
Assay type: cell-based
Conditions: read-out: NrF2 translocation assay EC50
Experimental: NrF2 Activation in a Whole Cell Nuclear Translocation Assay Compounds were tested in a NrF2 (Nuclear factor (erythroid-derived 2)-like 2) translocation assay by adapting the methods set forth in U.S. Pat. No. 8,101,373, the disclosure of which is incorporated herein by reference.

| SMILES | EC50 |
| --- | --- |
| COC(=O)/C=C/n1nn[nH]c1=O [Compound 1, methyl (E)-3-(5-oxo-4,5-dihydro-1H-tetrazol-1-yl)acrylate] | 61 µM |
| COC(=O)/C=C/n1nnn(C2CCCC2)c1=O [Compound 11, methyl (E)-3-(4-cyclopentyl-5-oxo-4,5-dihydro-1H-tetrazol-1-yl)acrylate] | 5.4 µM |
| COC(=O)/C=C/n1nnn(C2CCOCC2)c1=O [Compound 12, methyl (E)-3-(5-oxo-4-(tetrahydro-2H-pyran-4-yl)-4,5-dihydro-1H-tetrazol-1-yl)acrylate] | 10.4 µM |
| COC(=O)/C=C/n1nnn(CC(=O)OC)c1=O [Compound 14, methyl (E)-3-(4-(2-methoxy-2-oxoethyl)-5-oxo-4,5-dihydro-1H-tetrazol-1-yl)acrylate] | 6.7 µM |
| COC(=O)/C=C/n1nnn(/C=C/C(=O)OC)c1=O [Compound 20, dimethyl 3,3′-(5-oxo-1H-tetrazole-1,4(5H)-diyl)(2E,2′E)-diacrylate] | 0.7 µM |

Other lines, results leading:

| EC50 | SMILES |
| --- | --- |
| 7.8 µM | COC(=O)/C=C/n1nnn(C(C)C)c1=O [Compound 6, methyl (E)-3-(4-isopropyl-5-oxo-4,5-dihydro-1H-tetrazol-1-yl)acrylate] |
| 6.1 µM | COC(=O)/C=C/n1nnn(C(=O)N(C)C)c1=O [Compound 10, Methyl (E)-3-(4-(dimethylcarbamoyl)-5-oxo-4,5-dihydro-1H-tetrazol-1-yl)acrylate] |
| 1 µM | COC(=O)/C=C/n1nnn(-c2ccccc2)c1=O [Compound 16, methyl (E)-3-(5-oxo-4-phenyl-4,5-dihydro-1H-tetrazol-1-yl)acrylate] |
| 7.2 µM | COC(=O)/C=C/n1nnn(C2CC2)c1=O [Compound 21, methyl (E)-3-(4-cyclopropyl-5-oxo-4,5-dihydro-1H-tetrazol-1-yl)acrylate] |

Same assay, conditions: reference fumarates, read-out: NrF2 activation EC50

| EC50 | SMILES |
| --- | --- |
| ~127 µM | COC(=O)/C=C/C(=O)O [Monomethyl fumarate, monomethyl fumarate, reference compound] |
| ~7.9 µM | COC(=O)/C=C/C(=O)OC [dimethyl fumarate, reference compound] |
